Where two headings read alike, the source gives them in different places.
Tests used:
[1] = system: Staphylococcus aureus; assay: MIC by broth microdilution; assay type: cell-based; settings: internal code L165; for MIC: Staphylococcus aureus, read-out: MIC of the compounds
[2] = system: Staph. aureus rifa-r^(1); assay: MIC by broth microdilution; assay type: cell-based; settings: for MIC: Staphylococcus aureus, read-out: MIC of the compounds
[3] = system: Staph. aureus rifa-r^(2); assay: MIC by broth microdilution; assay type: cell-based; settings: for MIC: Staphylococcus aureus, read-out: MIC of the compounds
[4] = system: Staph. aureus Smith; assay: MIC by broth microdilution; assay type: cell-based; settings: internal code L819
[5] = system: Staph. epidermidis ATCC 12228; assay: MIC by broth microdilution; assay type: cell-based; settings: internal code L147; for MIC: Staphylococcus epidermidis, ATCC12228, read-out: MIC of the compounds
[6] = system: Staph. haemolyticus rifa-r^(2); assay: MIC by broth microdilution; assay type: cell-based; settings: for MIC: Staphylococcus haemolyticus, read-out: MIC of the compounds
[7] = system: Streptococcus pyogenes; assay: MIC by broth microdilution; assay type: cell-based; settings: internal code L49; for MIC: Streptococcus pyogenes, read-out: MIC of the compounds
[8] = system: Strept. pneumoniae; assay: MIC by broth microdilution; assay type: cell-based; settings: internal code L44; for MIC: Streptococcus pneumoniae, read-out: MIC of the compounds
[9] = system: Enterococc. faecalis ATCC 7080; assay: MIC by broth microdilution; assay type: cell-based, Enterococcus faecalis; settings: internal code L149; for MIC: Enterococcus faecalis, ATCC7080, read-out: MIC of the compounds
[10] = system: Bacteroides fragilis ATCC 23745; assay: MIC by broth microdilution; assay type: cell-based; settings: internal code L1010, anaerobic, 48 hours
[11] = system: Neisseria gonorrhoeae; assay: MIC by broth microdilution; assay type: cell-based; settings: internal code L997, 5% carbon dioxide, 48 hours; for MIC: Neisseria gonorrhoeae, read-out: MIC of the compounds
[12] = system: Haemoph. influenzae ATCC 19418; assay: MIC by broth microdilution; assay type: cell-based, Haemophilus influenzae; settings: internal code L970, 5% carbon dioxide, 48 hours; for MIC: Haemophilus influenzae, ATCC19418, read-out: MIC of the compounds
[13] = system: Escherichia coli; assay: MIC by broth microdilution; assay type: cell-based; settings: internal code L47; for MIC: Escherichia coli, read-out: MIC of the compounds
[14] = system: Proteus vulgaris ATCC 881; assay: MIC by broth microdilution; assay type: cell-based; settings: internal code L79; for MIC: Proteus vulgaris, ATCC881, read-out: MIC of the compounds
[15] = system: Pseudomonas aerug. ATCC10145; assay: MIC by broth microdilution; assay type: cell-based, Pseudomonas aeruginosa; settings: internal code L4; for MIC: Pseudomonas, ATCC10145, read-out: MIC of the compounds
[16] = system: Staphylococcus aureus Smith (Int. code L 819); assay: Experimental septicemia in mice; assay type: in vivo; settings: treated once immediately after infection, survival on the 7th day; for ED50: Staphylococcus aureus, 168 h
Procedure: Some compounds of the invention were also tested in experimental septicemia in mice infected with Staphylococcus aureus Smith (Int. code L 819). For this purpose, groups of five mice were infected intraperitoneally with about 1 x 10^6 CFU of S. aureus Smith suspended in 0.5 ml of Difco bacteriological mucin. Untreated animals died within 48 hours. The other animals were treated once immediately after infection. On the 7th day the value of ED50 (expressed in mg/kg) was calculated by the method of Spearman-[…]., Statistical method in biological assay, page 254, C. Griffin Ltd., London, 1952), on the basis of the percentage of animals surviving at each dose.

[17] = system: Propionibact. acnes ATCC 6919; assay: MIC by broth microdilution; assay type: cell-based, Propionibacterium acnes; settings: Cutibacterium acnes, ATCC6919; internal code L1014; anaerobic, 48 hours; read-out: MIC of the compounds
[18] = system: Clostridium perfringens; assay: microbe, parasite or virus in culture; assay type: cell-based; settings: read-out: MIC of the compounds
[19] = system: Bacteroides fragilis ATCC 25285; assay: MIC by broth microdilution; assay type: cell-based; settings: Bacteroides fragilis, ATCC25285; internal code L1011; anaerobic, 48 hours; read-out: MIC of the compounds
[20] = system: Moraxella catarr. ATCC 8178; assay: MIC by broth microdilution; assay type: cell-based, Moraxella catharralis; settings: ATCC8178, internal code L76, read-out: MIC of the compounds
[21] = system: Esch. coli K12 hyperpermeable; assay: MIC by broth microdilution; assay type: cell-based, Escherichia coli; settings: Escherichia coli, read-out: MIC of the compounds
[22] = system: Esch. coli K12 rifa-r^(1); assay: MIC by broth microdilution; assay type: cell-based, Escherichia coli; settings: Escherichia coli, read-out: MIC of the compounds
[23] = system: Klebsiella pneumoniae; assay: MIC by broth microdilution; assay type: cell-based; settings: internal code L142, read-out: MIC of the compounds

| Compound | MIC [1] [ng/mL] | MIC [2] [µg/mL] | MIC [3] [µg/mL] | MIC [5] [ng/mL] | MIC [6] [µg/mL] | MIC [7] [µg/mL] | MIC [8] [µg/mL] | MIC [9] [µg/mL] | MIC [17] [µg/mL] | MIC [18] [ng/mL] | MIC [19] [µg/mL] | MIC [11] [µg/mL] | MIC [20] [ng/mL] | MIC [12] [µg/mL] | MIC [13] [µg/mL] | MIC [21] [µg/mL] | MIC [22] [µg/mL] | MIC [14] [µg/mL] | MIC [23] [µg/mL] | MIC [15] [µg/mL] | other results |
| --- | --- | --- | --- | --- | --- | --- | --- | --- | --- | --- | --- | --- | --- | --- | --- | --- | --- | --- | --- | --- | --- |
| 36-[(1-Ethyl-6-fluoro-1,4-dihydro-7-(4-methyl-1-piperazinyl)-4-oxo-3-quinolinyl)carbonyloxy]-2'-(diethylamino)rifamycin P [Compound C22] |  |  |  |  |  |  |  |  |  |  |  |  |  |  |  |  |  |  |  |  | MIC of the compounds [1]: 0.06 µg/mL; MIC of the compounds ([2]; internal code L721, rifampicin resistant strain, moderately resistant): 0.13 µg/mL; MIC of the compounds ([3]; internal code L1282, rifampicin resistant strain, highly resistant): 1 µg/mL; MIC of the compounds [4]: 0.06 µg/mL; MIC of the compounds [5]: 0.06 µg/mL; MIC of the compounds ([6]; internal code L602, rifampicin resistant strain, highly resistant): 0.5 µg/mL; MIC of the compounds [7]: 0.06 µg/mL; MIC of the compounds [8]: 0.06 µg/mL; MIC of the compounds [9]: 2 µg/mL; MIC of the compounds [10]: 0.13 µg/mL; MIC of the compounds [11]: 0.25 µg/mL; MIC of the compounds [12]: 0.5 µg/mL; MIC of the compounds [13]: ≥128 µg/mL; MIC of the compounds [14]: 64 µg/mL; MIC of the compounds [15]: 32 µg/mL; ED50 IV route ([16]; intravenous): 0.7 mg/kg; ED50 SC route ([16]; subcutaneous): 5.3 mg/kg |
| CO[C@H]1/C=C/O[C@@]2(C)Oc3c(C)c(O)c4c(c3C2=O)C(=O)C=C(NC(=O)/C(C)=C\C=C\[C@H](C)[C@H](O)[C@@H](C)[C@@H](O)[C@@H](C)[C@H](OC(=O)CBr)[C@@H]1C)C4=O [Compound C1, 36-Bromorifamycin S] | 4 | 0.25 | 2 | 4 | 32 | 0.03 | 0.03 | 1 | 0.016 | 0.3 | 1 | 1 | 8 | 1 | 32 | 0.25 | > 128 | 16 | 128 | 32 |  |
| CO[C@H]1/C=C/O[C@@]2(C)Oc3c(C)c(O)c4c(c3C2=O)C(=O)C=C(NC(=O)/C(C)=C\C=C\[C@H](C)[C@H](O)[C@@H](C)[C@@H](O)[C@@H](C)[C@H](OC(=O)CCl)[C@@H]1C)C4=O [Compound C3, 36-Chlororifamycin S] | 4 | 1 | 16 | 8 | 64 | 0.016 | 0.03 | 0.25 | 0.03 | 0.3 | 0.13 | 0.13 | 8 | 1 | 32 | 0.25 | > 128 | 8 | 64 | 32 |  |
| CO[C@H]1/C=C/O[C@@]2(C)Oc3c(C)c(O)c4c(c3C2=O)C(=O)C(N2CCOCC2)=C(NC(=O)/C(C)=C\C=C\[C@H](C)[C@H](O)[C@@H](C)[C@@H](O)[C@@H](C)[C@H](OC(=O)CBr)[C@@H]1C)C4=O [Compound C8, 36-Bromo-3-(4-morpholinyl)rifamycin S] | 2 | 0.5 | 0.5 | 1 | 16 | 0.06 | 0.03 | 0.5 | 0.004 | 1 | 0.03 | 0.03 | 2 | 0.13 | 8 | ≤ 0.13 | > 128 | 8 | 16 | 16 |  |
| CO[C@H]1/C=C/O[C@@]2(C)Oc3c(C)c(O)c4c(c3C2=O)C(=O)C=C(NC(=O)/C(C)=C\C=C\[C@H](C)[C@H](O)[C@@H](C)[C@@H](O)[C@@H](C)[C@H](OC(=O)COC(C)=O)[C@@H]1C)C4=O [Compound C13, 36-Acetyloxyrifamycin S] | 2 | 0.25 | 4 | 1 | 32 | 0.008 | 0.008 | 0.13 | 0.03 | 0.5 | 0.5 | 0.25 | 4 | 0.5 | 16 | ≤ 0.13 | > 128 | 8 | 64 | 32 |  |
| CO[C@H]1/C=C/O[C@@]2(C)Oc3c(C)c(O)c4c(c3C2=O)C(=O)C(N2CCOCC2)=C(NC(=O)/C(C)=C\C=C\[C@H](C)[C@H](O)[C@@H](C)[C@@H](O)[C@@H](C)[C@H](OC(=O)CO)[C@@H]1C)C4=O [Compound C15, 36-Hydroxy-3-(4-morpholinyl)rifamycin S] | 2 | 2 | 4 | 1 | 4 | 0.03 | 0.016 | 0.5 | 0.016 | 1 | 0.03 | 0.03 | 2 | 0.06 | 8 | ≤ 0.13 | > 128 | 8 | 8 | 16 |  |
| CCn1cc(C(=O)OCC(=O)O[C@H]2[C@H](C)[C@H](O)[C@H](C)[C@@H](O)[C@@H](C)/C=C/C=C(/C)C(=O)NC3=C(N4CCOCC4)C(=O)c4c(c(O)c(C)c5c4C(=O)[C@@](C)(O/C=C/[C@H](OC)[C@H]2C)O5)C3=O)c(=O)c2cc(F)c(N3CCN(C)CC3)cc21 [Compound C24, 36-{[1-Ethyl-6-fluoro-1,4-dihydro-7-(4-methyl-1-piperazinyl)-4-oxo-3-quinolinyl]carbonyloxy}-3-(4-morpholinyl) rifamycin S] | 60 | 0.06 | 0.13 | 8 | 0.13 | 0.06 | 0.008 | 0.13 | 0.06 |  |  | 0.06 |  | 0.13 | 16 |  |  | 16 |  | 16 | MIC ([4]; Staphylococcus aureus, read-out: MIC of the compounds): 0.06 µg/mL; MIC ([10]; Bacteroides fragilis, ATCC23745, read-out: MIC of the compounds): 0.13 µg/mL; ED50 ([16]; intravenous, read-out: ED50 IV route): 3.8 mg/kg; ED50 ([16]; sc, subcutaneous, read-out: ED50 SC route): > 50 mg/kg |
